Test results as given in US20250115578A1, “AROMATIC FUSED RING NAV1.8 INHIBITOR, AND USE THEREOF” (CHENGDU KANGHONG PHARMACEUTICAL CO., LTD., priority 2022, published 2025).

Key:
hNav1.8 = hNav1.8 (Homo sapiens (Human), UniProt Q9Y5Y9); test: Manual patch clamp, Method 1 (CHO cell line stably expressing hNav1.8); format: cell-based; details: for inhibition at 0.01 µM: 10 nM; for inhibition at 0.01 µM / inhibition at 0.1 µM: Method 1, CHO-hNav1.8, read-out: Inhibition rate of hNav1.8; for inhibition at 0.1 µM: 100 nM; for IC50: Method 1, CHO-hNav1.8, manual patch clamp, resting state, read-out: IC50 inhibitory activity against hNav1.8
Chain of hNav1.8 (Q9Y5Y9 whole entry): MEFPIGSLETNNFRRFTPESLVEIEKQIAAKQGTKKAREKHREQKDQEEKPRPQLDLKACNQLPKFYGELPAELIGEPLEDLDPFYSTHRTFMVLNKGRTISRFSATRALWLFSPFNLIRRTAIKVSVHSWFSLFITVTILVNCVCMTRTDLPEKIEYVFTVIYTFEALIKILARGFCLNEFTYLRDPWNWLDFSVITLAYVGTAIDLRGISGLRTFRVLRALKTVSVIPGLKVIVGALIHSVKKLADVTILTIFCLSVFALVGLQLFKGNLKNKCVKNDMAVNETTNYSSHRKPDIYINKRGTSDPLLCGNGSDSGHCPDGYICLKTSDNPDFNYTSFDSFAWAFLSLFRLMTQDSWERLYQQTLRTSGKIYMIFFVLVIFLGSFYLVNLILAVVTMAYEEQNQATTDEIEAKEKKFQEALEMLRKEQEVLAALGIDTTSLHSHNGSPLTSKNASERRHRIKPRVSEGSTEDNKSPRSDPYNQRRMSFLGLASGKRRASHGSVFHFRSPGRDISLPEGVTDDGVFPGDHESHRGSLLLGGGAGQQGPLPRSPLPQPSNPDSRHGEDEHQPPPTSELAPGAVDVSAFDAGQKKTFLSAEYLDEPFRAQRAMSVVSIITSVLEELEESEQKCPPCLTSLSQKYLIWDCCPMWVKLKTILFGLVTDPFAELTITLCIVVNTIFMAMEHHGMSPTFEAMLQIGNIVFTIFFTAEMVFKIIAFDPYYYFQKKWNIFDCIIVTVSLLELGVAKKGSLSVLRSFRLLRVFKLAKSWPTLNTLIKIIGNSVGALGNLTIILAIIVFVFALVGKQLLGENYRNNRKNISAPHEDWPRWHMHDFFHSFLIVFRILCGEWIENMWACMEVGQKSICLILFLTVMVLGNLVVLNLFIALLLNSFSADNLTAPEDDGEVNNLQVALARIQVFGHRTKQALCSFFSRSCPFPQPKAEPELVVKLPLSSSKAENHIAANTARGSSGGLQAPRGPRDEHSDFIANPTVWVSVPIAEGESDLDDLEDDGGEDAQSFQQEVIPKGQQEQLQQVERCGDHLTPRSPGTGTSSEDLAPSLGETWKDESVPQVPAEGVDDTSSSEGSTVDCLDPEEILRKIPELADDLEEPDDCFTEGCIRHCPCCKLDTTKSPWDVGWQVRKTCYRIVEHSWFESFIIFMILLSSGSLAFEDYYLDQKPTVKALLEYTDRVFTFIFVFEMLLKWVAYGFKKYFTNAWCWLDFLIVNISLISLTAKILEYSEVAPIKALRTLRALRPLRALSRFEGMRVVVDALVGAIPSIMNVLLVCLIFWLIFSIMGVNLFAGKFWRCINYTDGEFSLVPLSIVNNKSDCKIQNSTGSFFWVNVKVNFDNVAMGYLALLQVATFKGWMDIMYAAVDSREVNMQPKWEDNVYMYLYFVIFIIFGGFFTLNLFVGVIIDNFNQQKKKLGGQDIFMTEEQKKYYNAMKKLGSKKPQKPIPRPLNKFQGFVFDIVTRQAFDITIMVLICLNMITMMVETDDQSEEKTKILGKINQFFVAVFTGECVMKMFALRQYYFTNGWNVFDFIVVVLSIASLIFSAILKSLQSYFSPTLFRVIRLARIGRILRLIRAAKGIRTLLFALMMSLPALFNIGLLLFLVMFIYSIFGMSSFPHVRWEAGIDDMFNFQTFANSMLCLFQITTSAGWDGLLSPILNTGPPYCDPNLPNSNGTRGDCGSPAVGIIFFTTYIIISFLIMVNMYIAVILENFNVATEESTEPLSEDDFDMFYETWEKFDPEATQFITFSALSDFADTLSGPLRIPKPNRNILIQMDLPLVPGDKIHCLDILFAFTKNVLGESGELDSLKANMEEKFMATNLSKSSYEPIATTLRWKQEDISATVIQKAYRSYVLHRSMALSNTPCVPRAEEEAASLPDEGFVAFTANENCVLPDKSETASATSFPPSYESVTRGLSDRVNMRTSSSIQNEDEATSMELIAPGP

Human Nav1.8 ion channel = Human Nav1.8 ion channel (Homo sapiens (Human), UniProt Q9Y5Y9); test: Manual patch clamp, Method 2 (HEK293 cells stably expressing human Nav1.8, resting state); format: cell-based; details: Method 2, HEK293-hNav1.8, resting state, 1 μM TTX; read-out: IC50 inhibitory activity against hNav1.8
[1] = Stability assay for human liver microsomes in vitro; format: in vitro ADME; details: 1 μM compound, 0.5 mg/mL liver microsomes, read-out: Human liver microsome stability T1/2
Description: • Human liver microsomes, purchased from Corning or Xenotech, stored in a −80° C. refrigerator. • Nicotinamide adenine dinucleotide phosphate (NADPH), Chem-impex international, 00616 • Control compounds: testosterone, diclofenac, propafenone
• Water bath (HH-60, Guohua, Changzhou, China) • Pipette workstation (PP-550DS, Apricot, Covina, USA) • Centrifuge (5810R, Eppendorf, Hamburg, Germany) • Mass Spectrometer (Sciex API 4000, Singapore) • High Performance Liquid Chromatography (LC 20-AD, Shimadzu, Kyoto, Japan) • Sampler (ADDA, Apricot Designs, California, USA)
• Stock solution: 10 mM in DMSO • Working solution concentration preparation: 10 mM stock solution was diluted to 100 μM with 100% acetonitrile (organic phase content: 99% ACN, 1% DMSO)
Two 96-well incubation plates were named T60 incubation plate and NCF60 incubation plate.
445 μL microsomal working solution (liver microsomal protein concentration: 0.56 mg/mL) was added to the T60 and NCF60 incubation plates respectively, then the incubation plates above were placed in a water bath at 37° C. for pre-incubation approximately 10 minutes.
After the pre-incubation finished, 5 μL of the test compound working solution was added to the T60 and NCF60 incubation plates respectively, and mixed well. 50 μL potassium phosphate buffer was added to each well on the NCF60 incubation plate to start the reaction. 180 μL termination solution (acetonitrile solution containing 200 ng/mL tolbutamide and 200 ng/mL labetalol) and 6 uL working solution of NADPH regeneration system were added to the TO termination plate, and 54 μL samples were removed from the T60 incubation plate to the TO termination plate (TO sample generated). The reaction was initiated by adding 44 μL of NADPH regenerating system working solution per well on the T60 incubation plate. Only 54 μL microsomal working solution, 6 uL NADPH regeneration system working solution, and 180 μL termination solution were added to the Blank plate. Therefore, in the samples of the test or control compounds, the final reaction concentration of the compounds, testosterone, diclofenac and propafenone was 1 μM, the concentration of the liver microsomes was 0.5 mg/mL, and the final concentration of DMSO and acetonitrile in the reaction system was 0.01% (v/v) and 0.99% (v/v), respectively.
After incubation for an appropriate time (e.g. 5, 10, 20, 30, and 60 minutes), 180 μL of termination solution (acetonitrile solution containing 200 ng/mL tolbutamide and 200 ng/mL labetalol) was added to the sample hole of each termination plate, respectively. After that, 60 μL sample was removed from the T60 incubation plate to terminate the reaction.
All sample plates were shaken evenly and centrifuged at 3220×g for 20 min. Then 80 μL supernatant was taken from each well and diluted to 240 μL pure water for LC-MS/MS analysis.
All samples were injected for analysis.

Row | Compound | inhibition at 0.01 µM (hNav1.8) | inhibition at 0.1 µM (hNav1.8) | IC50 (hNav1.8) | IC50 (Human Nav1.8 ion channel) | half-life at 1 µM [1]
1 | NC(=O)c1cc(NC(=O)c2nc3ccccc3nc2N2CCCC(F)(F)CC2)ccc1F [Example 02, N-(3-carbamoyl-4-fluorophenyl)-3-(4,4-difluoroazepan-1-yl)quinoxaline-2-carboxamide] | 66.1% | 96.1% | 5.3 nM | 2.82 nM | 58.8 min
2 | NC(=O)c1cc(NC(=O)c2nc3ccccc3nc2N2CCCC(F)(F)CC2)ccn1 [Example 05, N-(2-carbamoylpyridin-4-yl)-3-(4,4-difluoroazepan-1-yl)quinoxaline-2-carboxamide] | 46.7% | 90.5% | 8.9 nM | 21.3 nM | 93.7 min
3 | NC(=O)c1cc(NC(=O)c2cc3ccccc3nc2N2CCCC(F)(F)CC2)ccn1 [Example 08, N-(2-carbamoylpyridin-4-yl)-2-(4,4-difluoroazepan-1-yl)quinoline-3-carboxamide] | 75.4% | 96.6% | 3.3 nM | 1.74 nM | 23 min
4 | NC(=O)c1cc(NC(=O)c2cc3cc(F)c(F)cc3nc2N2CCCC(F)(F)CC2)ccn1 [Example 10, N-(2-carbamoylpyridin-4-yl)-2-(4,4-difluoroazepan-1-yl)-6,7-difluoroquinoline-3-carboxamide] | 95.5% | 99.1% | 0.784 nM | 0.46 nM | 92.7 min
5 | NS(=O)(=O)c1cc(NC(=O)c2cc3ccccc3nc2N2CCCC(F)(F)CC2)ccn1 [Example 14, 2-(4,4-difluoroazepan-1-yl)-N-(2-sulfamoylpyridine-4-yl) quinoline-3-carboxamide] | 98% | 99.6% | 0.34 nM | 0.725 nM | > 145 min
6 | NS(=O)(=O)c1cccc(NC(=O)c2cc3cc(F)c(F)cc3nc2N2CCCC(F)(F)CC2)c1 [Example 16, 2-(4,4-difluoroazepan-1-yl)-6,7-difluoro-N-(3-sulfamoylphenyl) quinoline-3-carboxamide] | 99.8% | 100% | 0.084 nM | 0.071 nM | 41.3 min
